Laboratory results: US9328118B2, “Nitrogen-containing bicyclic aromatic heterocyclic compound” (ASTELLAS PHARMA INC., priority 2012, dated 2016)

Experiments:
[1] = test system: OVA specific IgG antibody titer; assay: Antibody production inhibitory effect in mouse OVA-induced antibody production model; format: in vivo, BALB/c male mice; conditions: oral 0.3 mg/kg daily Day 0 to Day 14, titer at Day 14
Method: Test Example 4 Evaluation of Antibody Production Inhibitory Effect in Mouse OVA-Induced Antibody Production Model
Evaluation of an antibody production inhibitory effect in vivo was performed.
The BALB/c male mice were sensitized by intraperitoneal administration of 200 μL of an emulsion consisting of 100 μg of ovalbumin (OVA) (SIGMA A5503) and 100 μL of a complete Freund's adjuvant (CFA) (DIFCO 231131) (Day 0), and a week after that, the mice were sensitized by intraperitoneal administration of 200 μL of an emulsion consisting of 50 μg of OVA and 100 μL of an incomplete Freund's adjuvant (IFA) (DIFCO 263910) (Day 7). The test compound dissolved in a vehicle (30% propylene glycol solvent (propylene glycol:HCO40:Tween 80=4:2:1)/HCl (2 equivalents with respect to the test compound)/water) was orally administered (dose: 0.3 mg/kg, 1 mg/kg, or 3 mg/kg) at 10 mL/kg/day from Day 0 to Day 14, and an OVA specific IgG antibody titer in blood plasma at Day 14 was evaluated. Measurement of antibody titer was carried out using a blood plasma sample which was diluted 40,000 times by an ELISA method, and the antibody titer was represented as a ratio with respect to control blood plasma. An antibody titer of a mouse to which the vehicle was orally administered at 10 mL/kg/day from Day 0 to Day 14 was set to 0% inhibition, an antibody titer of a normal mouse to which the vehicle was orally administered at 10 mL/kg/day from Day 0 to Day 14 and which was not sensitized with OVA was set to 100% inhibition, and the inhibition rate at the time of the test compound administration was calculated.

SLE spontaneous model = assay: SLE onset inhibitory effect in spontaneous model using NZB/W F1 mouse; format: in vivo, NZB/W F1 female mice; conditions: oral 0.3 mg/kg once a day from 20 weeks old, at 41 weeks old
Method: NZB/W F1 mice are used as a model of SLE that spontaneously develops a condition close to humans ([…] et al, Proceedings of the university otago medical school (New Zealand), 1961, Vol. 39, p. 3; Advances in Immunology, 1985, Vol. 37, p. 269-390; Perry et al, Journal of Biomedicine and Biotechnology, 2011, Article ID 271694, Review Article). […] At this time, an individual having greater than 100 mg/dL of urine protein was excluded. […] Furthermore, a pathology evaluation of kidney tissue in the above Test 5 was performed. […] In accordance with histological classification of lupus nephritis by WHO, a histopathological image was classified into Class I (normal glomerulus), Class II (mesangium lesion), Class III (focal segmental glomerulonephritis), Class IV (diffuse glomerulonephritis), and Class VI (progressive sclerosing lupus nephritis).

[2] = test system: MHC class II expression in B220 positive B cells of mouse spleen cells; assay: In vitro MHC class II expression inhibitory effect using mouse spleen cells (LPS-stimulated B cells, flow cytometry); format: cell-based, C57BL/6 mice; conditions: B-cell, C57BL/6 spleen cells, LPS 2 μg/mL, 48 hours, B220 positive B cells, read-out: IC50 value of MHC class II expression inhibition (Data 2)
Method: Test Example 2 Evaluation of In Vitro MHC Class II Expression Inhibitory Effect Using Mouse Spleen Cells (Cell Evaluation System)
In antigen-presenting cells, the inhibition of cathepsin S inhibits the expression of MHC class II molecules. […] For an increased expression of MI-IC class II in B cells, the inhibitory effect of the compound represented by formula (I) was examined.
First, spleen cells collected from C57BL/6 mice were seeded in a 96-well plate so as to be a 1×10^5 cells/well, then, 5-fold dilution of 10 mM DMSO solution of the test compound was serially performed with RPMI 1640 medium (including 10% fetal bovine serum (FCS), 5×10^−5 M 2-mercaptoethanol, 50 IU/mL penicillin and 50 μg/mL streptomycin) nine times such that the final concentration becomes 0.026 nM to 10 μM, and the resultant products were added thereto (the final DMSO concentration was 0.1%). At the same time, LPS (Sigma L4005) was added to the wells such that the final concentration becomes 2 μg/mL, and culture was performed at 37° C. for 48 hours in 5% CO2. After culturing, the cells were stained at 4° C. for 20 minutes with PE-labeled streptavidin (BD BIOSCIENCE 554061) and biotin-labeled YAe antibody (EBIOSCIENCE 13-5741-85) together with FITC-labeled anti-mouse B220 antibody (BD BIOSCIENCE 553088), and an expression level (fluorescence intensity of YAe-biotin/streptavidin-PE) of MHC class II to which Ea peptide in B220 positive B cells was bonded was measured using a flow cytometry system (Guava EasyCyte Plus System, manufactured by Millipore Corporation). A value at the time of unstimulation of LPS in which the test compound was not added and a value at the time of stimulation of LPS in which the test compound was not added were set to 100% inhibition and 0% inhibition, respectively, then, an inhibition rate at each concentration was determined, and IC50 values were calculated by a linear regression method. In the Table, Ex represents Example compound No., and Data 2 represents an IC50 value (nM).

[3] = test system: MHC class II expression in peripheral blood B cells; assay: Ex vivo MHC class II expression inhibitory effect using mouse peripheral blood after oral administration; format: in vivo, C57BL/6 mice; conditions: oral 1 mg/kg, blood collected after 3 hours, LPS 15 hours
Method: Test Example 3 Evaluation of Ex Vivo MHC Class II Expression Inhibitory Effect Using Mouse Peripheral Blood
The expression inhibitory effect of MHC class II molecules was evaluated in an ex vivo system.
The test compound was orally administered into C57BL/6mice, and the inhibitory effect with respect to the increased expression of MHC class II in B cells in peripheral blood after oral administration was examined. That is, 10 mL/kg of the test compound dissolved in a vehicle (30% propylene glycol solvent (propylene glycol:cured castor oil (HCO40):Tween 80=4:2:1)/HCl (2 equivalents with respect to the test compound)/water) was orally administered (dose: 0.1 mg/kg, 0.3 mg/kg, 1 mg/kg, or 3 mg/kg) to a C57BL/6mice, and the peripheral blood was collected after 3 hours. 10 μL of RPMI 1640 medium (including 5×10^−5 M of 2-mercaptoethanol, 50 IU/mL of penicillin, and 50 μg/mL of streptomycin) or 10 μL of LPS adjusted with the medium such that the final concentration becomes 100 μg/mL was added to 90 μL of the peripheral blood, and culture was performed at 37° C. for 15 hours in 5% CO2. After culturing, the cells were stained at 4° C. for 30 minutes with FITC-labeled anti-mouse I-A/I-E antibody (BD BIOSCIENCE 553623) and PE-labeled B220 antibody (BD BIOSCIENCE 553090), and hemolysis and fixation were performed at 37° C. for 10 minutes using a buffer (BD BIOSCIENCE Phosflow Lyse/Fix Buffer 558049). After washing, using a flow cytometry system (FACSCanto II, manufactured by BD BIOSCIENCE), an expression level of MHC class II on a B220 positive B cell surface was measured by using a fluorescence intensity of FITC (hereinafter, referred to as MFI) as an indicator. The difference between a MFI at the time of stimulation of LPS and a MFI at the time of unstimulation of LPS was set to a ΔMFI, a ΔMFI of a mouse in which 10 mL/kg of only vehicle was administered was set to 1, and the inhibition rate of ΔMFI by the test compound administration was calculated.

- IC50 [2]: 0.61 nM
SMILES: CCN1CCC(CCOc2ncc(-c3nc(C#N)nc4c3ncn4C)cc2C(F)(F)F)CC1 [Example 39, 6-{6-[2-(1-ethylpiperidin-4-yl)ethoxy]-5-(trifluoromethyl)pyridin-3-yl}-9-methyl-9H-purine-2-carbonitrile]
- inhibition of OVA specific IgG antibody titer in blood plasma [1]: 74±8%
- average anti-dsDNA IgG antibody titer (SLE spontaneous model; 10 cases, ELISA): 9,263±1,700 mU/mL
- urine protein (SLE spontaneous model; all individuals of 10 cases): ≤ 100 mg/dL
- inhibition rate of ΔMFI (increased expression of MHC class II in peripheral blood B cells) [3]: 61±1.2%
